Data published in US7202261B2, “Calcilytic compounds” (NPS Pharmaceuticals, Inc., priority 1996, dated 2007).
Structures can show the parent of a compound that is named as a salt.

System: dissociated bovine parathyroid cells
Assay: Stimulation of PTH secretion
Type: cell-based
Conditions: Bos taurus, 0.5 h, 0.5 mM Ca2+, 30 minutes
Description: This example illustrates the ability of different calcilytic compounds to exert a biological effect on PTH secretion. PTH secretion was determined using dissociated bovine parathyroid cells as described below for Compounds 32, 33, and 38. […] Stimulation of PTH secretion was assayed as follows: Parathyroid cell buffer (PCB) contains (mM): NaCl, 126; KCl, 4; MgSO4, 1; K2HPO4/KH2PO4, 0.7; Na-Hepes, pH 7.45, and variable amounts of CaCl2 as specified (reagent grade). PCB was typically supplemented with bovine serum albumin (BSA fraction V; ICN Biomedicals, Inc., Costa Mesa, Calif.; catalog #81-003) and 1 mg/mL of D-glucose (reagent grade) as indicated. Percoll purification buffer was prepared immediately before use by mixing 8 mL of Percoll (Pharmacia LKB, Alameda, Calif.; catalog #17-0891-01) and 7 mL of a twice-concentrated PCB solution without phosphate and containing 2 mM CaCl2. Parathyroid glands were obtained from calves within minutes of slaughter at an abattoir and shipped via overnight express on ice in PCB containing 1.25 mM CaCl2. The glands were trimmed and minced in ice-cold PCB containing 1.25 mM CaCl2, 1 mg/mL of D-glucose, and 2% BSA. […]

Row | EC50 | Compound
1 | < 10 µM | COc1ccc(CC(C)(C)NC[C@@H](O)COc2ccccc2)cc1 (single isomer, unassigned) [Compound 32, (R) or (S)—N-(2-Hydroxy-3-phenoxypropyl)-1,1-dimethyl-2-(4-methoxyphenyl)ethylamine Hydrochloride]
2 | < 10 µM | COc1ccc(CC(C)(C)NCC(O)COc2cccc(OC)c2)cc1 (centres unmarked) [Compound 38, N-[2-Hydroxy-3-(3-methoxyphenoxy)propyl]-1,1-dimethyl-2-(4-methoxyphenyl)ethylamine Hydrochloride]
